Measurements as given in US10301292B2, “Bicyclic compound” (Takeda Pharmaceutical Company Limited, priority 2014, dated 2019).

Assays:
[1] = tested on: human renal cancer cell line 786-O; assay: Antitumor action on human renal cancer cell line 786-O tumor bearing mouse; type: in vivo; details: oral, 28 days, 786-O tumor bearing BALB/c nude mouse
Protocol: The antitumor action of the compound of the present invention on human renal cancer cell line 786-O tumor bearing mouse was evaluated by the following method.
Human renal cancer cell line 786-O (purchased from ATCC (American Type Culture Collection)) was transplanted to 6-week-old BALB/c female nude mouse (Shanghai SINO-British SIPPR/BK Lab Animal Ltd) at 3.0×10^6 cells by subcutaneous injection. After transplantation, the engrafted tumor was observed, the tumor diameter was measured on day 10 post-transplantation, and the tumor volume was calculated by the following formula. tumor volume=major axis×minor axis×minor axis×(1/2)
The mice having engrafted tumor with a volume size up to 150 mm^3 were selected and used for the experiment (8 per group). The test compound was suspended in 0.5% methylcellulose solution, and orally administered for 28 days at the dose and number of administration shown in the following Table. Finally, for the measurement of the drug effect, the tumor volume was calculated from the tumor diameter of the day before the start of the administration and the final day of the administration, and the tumor growth of the test compound administration group compared to that of the control administration group (T/C) was calculated by the following formula. T/C (%)=(tumor volume after completion of administration in test compound administration group−tumor volume before start of administration in test compound administration group)/(tumor volume after completion of administration in control administration group−tumor volume before start of administration in control administration group))×100
T/C (%) relative to human renal cancer cell line 786-O tumor bearing mouse at each dose and number of administration of the test compound (specifically, compound shown in Example 98) is shown below.

[2] = molecular target: T1, human ACC1 (Homo sapiens, UniProt Q13085); assay: Measurement of ACC1 inhibitory activity (Malonyl-CoA production, RapidFire-mass spectrometry); type: biochemical; details: 10 μM of the test compound; recombinant human ACC1; read-out: ACC1 inhibitory rate (%) at 10 μM
T1 construct: His tag (from vector pFAST-BacHTc; protein captured on Ni-NTA) (N); made in house; host or cells: SF-9 insect cells, recombinant baculovirus BAC-ACC1
Procedure, shortened: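 Sf9-expressed His-tagged human ACC1, diluted to 0.2 μg/ml in HEPES pH 7.5/MgCl2/citrate/DTT/0.001% BSA, was preincubated 60 min at RT with compound. Reaction started with substrate solution (50 mM KHCO3, 200 μM ATP, 200 μM acetyl-CoA), ran 30 min at RT, then was formic acid-quenched. Malonyl-CoA was quantified by RapidFire-MS against malonyl-13C3-CoA.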

SMILES: CC(NC(N)=O)c1ccc2nc(-c3ccc(Oc4cccc(OCC5CC5)c4)nc3)oc2c1 (stereo not shown) [Example 98, 1-(1-(2-(6-(3-(cyclopropylmethoxy)phenoxy)pyridin-3-yl)-1,3-benzoxazol-6-yl)ethyl)urea]
- T/C (%) ([1]; 0.3 mg/kg, 2 times per day): 50.6%
- T/C (%) ([1]; 1 mg/kg, 2 times per day): 37.0%
- T/C (%) ([1]; 3 mg/kg, 2 times per day): 31.1%
- T/C (%) ([1]; 10 mg/kg, 2 times per day): 4.5%
- T/C (%) ([1]; 20 mg/kg, 1 time per day): 19.0%
- T/C (%) ([1]; 30 mg/kg, 2 times per day): 0.5%
- inhibition at 10 µM [2]: 98%
